Source: patent publication US20200157638A1, “BIOMARKERS AND PATIENT SELECTION STRATEGIES” (SIERRA ONCOLOGY, INC., priority 2017, published 2020)

Key:
[1] = test system: OVCAR-3; experiment: In vitro growth inhibition of cancer cell lines by SRA737; assay type: cell-based; conditions: OVCAR-3 ovarian cancer cell line; TP53 and RB1 mutations, CCNE1 amplification; FIG. 5
From the text: (§1) In cancer cells, replication stress induced by oncogenes (e.g., MYC and RAS oncogenes) and/or loss of function in tumor suppressors (e.g., TP53) results in persistent DNA damage and genomic instability, a trigger of the DDR network. […] SK-BR-3 is a breast cancer cell line harboring a deleterious mutation is TP53 and amplification in c-MYC. HT-29 is a colorectal cancer (CRC) cell line harboring a deleterious mutation in the tumor suppressor gene, adenomatous polyposis coli (APC), an amplification in c-MYC, and an activation mutation in the oncogenes, BRAF and PIK3CA. DU-145 is metastatic prostate cancer cell line harboring a deleterious mutation in the tumor suppressors TP53 and RB1, an amplification in KRAS, and alterations of the DNA damage repair genes TP53B1, MLH1 and MSH3. A673 is a rhabdomyosarcoma cell line harboring genetic alterations in the tumor suppressor genes, CDKN2A and CDKN2B and genetic alterations in the DNA damage repair genes BRCA1, Rad50 and Rad51D. OVCAR-3 is an ovarian cancer cell line harboring a deleterious mutations in the tumor suppressors TP53 and RB1 and an amplification of CCNE1. […] The results of these in vitro experiments confirm that cancer cells with genetic alterations in tumor suppressor genes, oncogenes, and/or DNA damage repair genes are sensitive to inhibition of Chk1.

[2] = test system: HT-29; experiment: as above; assay type: cell-based; conditions: HT-29 colorectal cancer cell line; APC mutation, c-MYC amplification, BRAF and PIK3CA activation; FIG. 4
From the text: as §1

[3] = test system: OVCAR-5; experiment: as above; assay type: cell-based; conditions: OVCAR-5 ovarian cancer cell line; KRAS activation, CCNE1 overexpression; FIG. 5
From the text: as §1

[4] = test system: DU-145; experiment: as above; assay type: cell-based; conditions: DU-145 metastatic prostate cancer cell line; TP53 and RB1 mutations, KRAS amplification; FIG. 4
From the text: as §1

[5] = test system: A673; experiment: as above; assay type: cell-based; conditions: A673 rhabdomyosarcoma cell line; CDKN2A/CDKN2B and BRCA1, Rad50, Rad51D alterations; FIG. 4
From the text: as §1

[6] = test system: SK-BR-3; experiment: as above; assay type: cell-based; conditions: SK-BR-3 breast cancer cell line; TP53 mutation, c-MYC amplification; FIG. 4
From the text: as §1

[7] = test system: OVCAR-3 xenograft; experiment: OVCAR-3 xenograft model of HGSOC, SRA737 monotherapy (Example 2); assay type: in vivo; conditions: 100 mg/kg, 3 cycles, 5 days on and 2 days off; FIG. 6B
From the text: The OVCAR-3 tumor cell line was derived from a platinum insensitive patient and harbors an amplification of CCNE1 (encoding cyclin E) and mutation in TP53 (encoding p53), two genomic alterations described herein to contribute to Chk1 inhibitor sensitivity.

[8] = test system: OVCAR-3 xenograft; experiment: OVCAR-3 xenograft model, SRA737 versus Olaparib (Example 3); assay type: in vivo, mouse; conditions: 100 mg/kg

SMILES: N#Cc1cnc(Nc2cc(NCC3CNCCO3)c(C(F)(F)F)cn2)cn1 (stereo not drawn) [SRA737, 5-[[4-[[morpholin-2-yl]methylamino]-5-(trifluoromethyl)-2-pyridyl]amino]pyrazine-2-carbonitrile]
- sensitivity to Chk1 inhibition (growth inhibition) [1]: demonstrated sensitivity to Chk1 inhibition
- sensitivity to Chk1 inhibition (growth inhibition) [2]: demonstrated sensitivity to Chk1 inhibition
- sensitivity to Chk1 inhibition (growth inhibition) [3]: demonstrated sensitivity to Chk1 inhibition
- sensitivity to Chk1 inhibition (growth inhibition) [4]: demonstrated sensitivity to Chk1 inhibition
- sensitivity to Chk1 inhibition (growth inhibition) [5]: demonstrated sensitivity to Chk1 inhibition
- sensitivity to Chk1 inhibition (growth inhibition) [6]: demonstrated sensitivity to Chk1 inhibition
- tolerability (body weight loss) [7]: well tolerated as demonstrated by minimal body weight loss
- tumor growth as compared to Olaparib ([8]; FIG. 7A): significantly reduced tumor growth
- body weight ([8]; FIG. 7B): not significantly altered
